Experimental data: patent US7338950B2, “Amide compounds as ion channel ligands and uses thereof” (Renovis, Inc., priority 2003, dated 2008)

Tested on: VR1 receptor (293 cells expressing capsaicin-insensitive VR1 receptor variants)
Assay: High throughput screening of VR1 antagonists using a calcium imaging assay (Fura2, pH 5.1 stimulus);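 also: Fura2 ratiometric fluorescence read every 4 s over 3 min, response taken as peak ratio minus baseline before pre-treatment, compound pre-treatment preceding acid challenge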
Conditions: 1 uM compound; inhibition of calcium ion influx
Text: A dual wavelength ratiometric dye, Fura2, was used as an indicator of relative levels of calcium ions in a 96 well format using a bench top scanning fluorometer with integrated fluidics and temperature control (Flex Station, Molecular Devices).
A dual wavelength ratiometric dye, Fura2, was used as an indicator of relative levels of [Ca2+] in a 96 well format using a bench top scanning fluorometer with integrated fluidics and temperature control (Flex Station, Molecular Devices).
293 cells were grown on PDL coated 96-well black-walled plates, in the presence of a DMEM medium containing 5% Penstrep, 5% Glutamax, 200 ug/mL Hygromycin, 5 μg/mL Blasticide and 10% heat inactivated FBS. Prior to assay, the cells were loaded with 5 μg/mL Fura2 in normal saline solution at 37° C. for 40 minutes. Cells were then washed with normal saline to remove the dye.
The assay consists of two stages; a pre-treatment phase followed by a treatment phase.
50 μl of a compound solution was added to the cells (Pre-treatment). Immediately following, 50 μl of the test compound in a saline solution at pH 5.1 was added. […] Changes in wavelength measurements were made throughout the course of the experiment in 4 second intervals over a period of 3 minutes. Responses were measured as peak fluorescence ratio after test compound addition minus baseline fluorescence ratio prior to pre-treatment and were calculated using SoftMaxPro softwareData were expressed as percentage inhibition calculated using Excel as follows:

SMILES	% Inhibition @ 1 uM
COc1cc(C(=O)Nc2ccc(-c3cnco3)cc2)ccc1-c1ncccc1Cl [Compound 1277]	+++ (compound exhibited 50-75% inhibition of calcium ion influx induced by capsaicin stimulation)
COc1cc(C(=O)Nc2cccc(Cl)c2Cl)ccc1-c1ncccc1Cl [Compound 1216]	++++ (compound exhibited 75% or greater inhibition of calcium ion influx induced by capsaicin stimulation)
CC(C)Oc1cccc(NC(=O)c2ccc(-c3ncccc3Cl)c(F)c2)c1 [Compound 1194]	+ (compound exhibited 0-25% inhibition of calcium ion influx induced by capsaicin stimulation)
N#Cc1cccc(NC(=O)c2ccc(-c3ncccc3Cl)cc2F)c1 [Compound 1101]	++++ (compound exhibited 75% or greater inhibition of calcium ion influx induced by capsaicin stimulation)
O=C(Nc1ccc(C(F)(F)F)cn1)c1ccc(-c2ncccc2Cl)cc1F [Compound 1114]	+ (compound exhibited 0-25% inhibition of calcium ion influx induced by capsaicin stimulation)
COc1cc(C(=O)Nc2nccs2)ccc1-c1ncccc1Cl [Compound 1252]	+ (compound exhibited 0-25% inhibition of calcium ion influx induced by capsaicin stimulation)
COc1cccc(NC(=O)c2ccc(-c3ncccc3Cl)cc2F)c1 [Compound 1091]	+ (compound exhibited 0-25% inhibition of calcium ion influx induced by capsaicin stimulation)
COc1ccc(NC(=O)c2ccc(-c3ncccc3Cl)c(F)c2)cc1O [Compound 1187]	++ (compound exhibited 25-50% inhibition of calcium ion influx induced by capsaicin stimulation)
Cc1cccnc1NC(=O)c1ccc(-c2ncccc2Cl)cc1 [Compound 1065]	++ (compound exhibited 25-50% inhibition of calcium ion influx induced by capsaicin stimulation)
O=C(Nc1ccc2[nH]ccc2c1)c1ccc(-c2ncccc2Cl)cc1 [Compound 1021]	++++ (compound exhibited 75% or greater inhibition of calcium ion influx induced by capsaicin stimulation)
O=C(Nc1cccc(OC(F)(F)F)c1)c1ccc(-c2ncccc2Cl)c(F)c1 [Compound 1193]	+ (compound exhibited 0-25% inhibition of calcium ion influx induced by capsaicin stimulation)
O=C(Nc1ccc(F)cc1)c1ccc(-c2ncccc2Cl)c(F)c1 [Compound 1131]	+ (compound exhibited 0-25% inhibition of calcium ion influx induced by capsaicin stimulation)
O=C(Nc1ccc(Br)cn1)c1ccc(-c2ncccc2Cl)cc1 [Compound 1066]	++ (compound exhibited 25-50% inhibition of calcium ion influx induced by capsaicin stimulation)
O=C(Nc1ccc2cn[nH]c2c1)c1ccc(-c2ncccc2Cl)cc1 [Compound 1290]	++ (compound exhibited 25-50% inhibition of calcium ion influx induced by capsaicin stimulation)
COc1cc(C(=O)Nc2cc(OC)c(OC)c(OC)c2)ccc1-c1ncccc1Cl [Compound 1263]	++++ (compound exhibited 75% or greater inhibition of calcium ion influx induced by capsaicin stimulation)
COc1cc(C(=O)Nc2ccncc2)ccc1-c1ncccc1Cl [Compound 1235]	++++ (compound exhibited 75% or greater inhibition of calcium ion influx induced by capsaicin stimulation)
COc1cc(C(=O)Nc2cccc(OC(F)(F)F)c2)ccc1-c1ncccc1Cl [Compound 1269]	+ (compound exhibited 0-25% inhibition of calcium ion influx induced by capsaicin stimulation)
Cc1cccnc1NC(=O)c1ccc(-c2ncccc2Cl)cc1F [Compound 1112]	+ (compound exhibited 0-25% inhibition of calcium ion influx induced by capsaicin stimulation)

SMILES	% Inhibition @ 1 uM
COc1ccc(NC(=O)c2ccc(-c3ncccc3Cl)c(F)c2)cc1Cl [Compound 1151]	++++ (compound exhibited 75% or greater inhibition of calcium ion influx induced by capsaicin stimulation)
COc1cc(C(=O)Nc2ccc(F)cc2[N+](=O)[O-])ccc1-c1ncccc1Cl [Compound 1227]	++++ (compound exhibited 75% or greater inhibition of calcium ion influx induced by capsaicin stimulation)
COc1cc(C(=O)Nc2ccc(Br)cn2)ccc1-c1ncccc1Cl [Compound 1243]	+ (compound exhibited 0-25% inhibition of calcium ion influx induced by capsaicin stimulation)
O=C(Nc1ccc(F)cc1[N+](=O)[O-])c1ccc(-c2ncccc2Cl)c(F)c1 [Compound 1149]	++++ (compound exhibited 75% or greater inhibition of calcium ion influx induced by capsaicin stimulation)
COc1cc(NC(=O)c2ccc(-c3ncccc3Cl)cn2)cc(C(F)(F)F)c1 [Compound 1328]	+ (compound exhibited 0-25% inhibition of calcium ion influx induced by capsaicin stimulation)
COc1cc(C(=O)Nc2ccc3ccccc3c2)ccc1-c1ncccc1Cl [Compound 1253]	++++ (compound exhibited 75% or greater inhibition of calcium ion influx induced by capsaicin stimulation)
O=C(Nc1ccc(Cl)nc1)c1ccc(-c2ncccc2Cl)c(F)c1 [Compound 1169]	+ (compound exhibited 0-25% inhibition of calcium ion influx induced by capsaicin stimulation)
O=C(Nc1ccncc1)c1ccc(-c2ncccc2Cl)c(F)c1 [Compound 1157]	++++ (compound exhibited 75% or greater inhibition of calcium ion influx induced by capsaicin stimulation)
COc1cc(C(=O)Nc2cccc(C#N)c2)ccc1-c1ncccc1Cl [Compound 1218]	++++ (compound exhibited 75% or greater inhibition of calcium ion influx induced by capsaicin stimulation)
O=C(Nc1ccc2c(c1)OCO2)c1ccc(-c2ncccc2Cl)cc1 [Compound 1051]	+ (compound exhibited 0-25% inhibition of calcium ion influx induced by capsaicin stimulation)
CCCCc1ccc(NC(=O)c2ccc(-c3ncccc3Cl)c(F)c2)cc1 [Compound 1144]	++++ (compound exhibited 75% or greater inhibition of calcium ion influx induced by capsaicin stimulation)
COc1cc(C(=O)Nc2ccc(Cl)cc2S(=O)(=O)O)ccc1-c1ncccc1Cl [Compound 1278]	+ (compound exhibited 0-25% inhibition of calcium ion influx induced by capsaicin stimulation)
O=C(Nc1cccnc1)c1ccc(-c2ncccc2Cl)cc1F [Compound 1080]	+ (compound exhibited 0-25% inhibition of calcium ion influx induced by capsaicin stimulation)
CCOc1cccc(NC(=O)c2ccc(-c3ncccc3Cl)cn2)c1 [Compound 1364]	++++ (compound exhibited 75% or greater inhibition of calcium ion influx induced by capsaicin stimulation)
COc1cc(C(=O)Nc2ccc(Cl)c(C(=O)O)c2)ccc1-c1ncccc1Cl [Compound 1259]	++++ (compound exhibited 75% or greater inhibition of calcium ion influx induced by capsaicin stimulation)
O=C(Nc1ccncc1)c1ccc(-c2ncccc2Cl)cc1 [Compound 1024]	++++ (compound exhibited 75% or greater inhibition of calcium ion influx induced by capsaicin stimulation)
O=C(Nc1cccc(Cl)c1)c1ccc(-c2ncccc2Cl)cc1F [Compound 1088]	+ (compound exhibited 0-25% inhibition of calcium ion influx induced by capsaicin stimulation)
O=C(Nc1ccccc1)c1ccc(-c2ncccc2Cl)cn1 [Compound 1306]	++++ (compound exhibited 75% or greater inhibition of calcium ion influx induced by capsaicin stimulation)
